The assay has as its system WT T. oceani 112 ilvE RNA (RNA, riboswitch) GGAAGUGUACCUUAGGGUUCCGGCCAUAAGGCGUCAGCGACCGAGCGGUACAAUCCGGGGAAACCCGGAACACCGUGAGCAUAAAAGGCUCCAGCGGCAAGUUCCUAAAAGA
The experiment in a line: in-line probing. The following applies: apparent; ppGpp 200 pM to 5 µM.

For one molecule, KD results are on record in PMC6003355 (2018).

As to `Nc1nc2c(ncn2[C@@H]2O[C@H](COP(=O)(O)OP(=O)(O)O)[C@@H](OP(=O)(O)OP(=O)(O)O)[C@H]2O)c(=O)[nH]1`, the KD was ~ 10 nM.
